The results in this text go back to patent US3984393A, “Aminoglycoside antibiotics” (The Upjohn Company, priority 1975, dated 1976).

SMILES strings stand for the structures. In brackets after ≈: the same amount, converted by molar mass. Where two headings read alike, the source gives them in different places.

One test deals with B. cereus. Description: standard disc plate assay, 12.5 mm paper discs (zone of inhibition), B. cereus. The format is cell-based, Bacillus cereus. Particulars: for zone of inhibition at 10000 µg/mL: 10 mg/ml; for active against Bacillus cereus: conclusion in words from the above results. From the text: (§1) The novel intermediates, disclosed herein, are useful to make novel aminoglycoside antibiotics. These novel aminoglycoside antibiotics are antibacterially active, and, thus, they can be used in various environments to eradicate or control sensitive bacteria. Following are in vitro antibacterial test results for representative compounds of the subject invention. The results were obtained with a standard disc plate assay using 12.5 mm paper discs.

The test system of a further test is B. subtilis. Description: standard disc plate assay, 12.5 mm paper discs (zone of inhibition), B. subtilis. Format: cell-based, Bacillus subtilis.
Excerpt: as §1

A further test has as its system S. aureus UC 76. Description: standard microplate test in BHI Agar (MIC), S. aureus UC 76. The format is cell-based, Staphylococcus aureus. The conditions noted are these: Staphylococcus aureus, UC76, 20 h. How it is done:
(§2) Compounds were also tested in a standard microplate test in Brain Heart Infusion (BHI) Agar, at a concentration of 1 mg/ml. Incubation is at 37° and end points are read at 20 hours. Brain Heart Infusion Agar (supplied by Difco Laboratories, Detroit, Michigan, U.S.A.) has the following composition:
(§3) Compounds (7β), (7α) and (9) were tested again along with compounds (11) and (14β) against a neamine control using the same conditions as given above.

The next test has as its system S. aureus UC 570. Description: standard microplate test in BHI Agar (MIC), S. aureus UC 570. Format: cell-based. Particulars: Staphylococcus aureus, UC570, 20 h, 37°, first table, read-out: Minimum Inhibitory Concentration. Here is the method: (§4) Compounds were also tested in a standard microplate test in Brain Heart Infusion (BHI) Agar, at a concentration of 1 mg/ml. Incubation is at 37° and end points are read at 20 hours. Brain Heart Infusion Agar (supplied by Difco Laboratories, Detroit, Michigan, U.S.A.) has the following composition: […]

The next test concerns S. aureus UC 746. Description: standard microplate test in BHI Agar (MIC), S. aureus UC 746. The format is cell-based. Particulars: Staphylococcus aureus, UC746, 37°, 20 h, first table, read-out: Minimum Inhibitory Concentration. Here is the method: as §4
Another test concerns S. hemolyticus UC 152. Nature of the test: standard microplate test in BHI Agar (MIC), S. hemolyticus UC 152. Particulars: Streptococcus pyogenes, UC152, 20 h. The format is cell-based, Streptococcus hemolyticus. How it is done:
as §2, §3

In the next test the test system is St. faecalis UC 694. Description: standard microplate test in BHI Agar (MIC), St. faecalis UC 694. Format: cell-based. Particulars: Enterococcus faecalis, UC694, 20 h, read-out: Minimum Inhibitory Concentration. Here is the method: as §2, §3
The next test has as its system E. coli UC 45. Description: standard microplate test in BHI Agar (MIC), E. coli UC 45. Format: cell-based. The conditions noted are these: Escherichia coli, UC45, 20 h. How it is done:
as §2, §3

The subject of the next test is P. vulgaris UC 93. Nature of the test: standard microplate test in BHI Agar (MIC), P. vulgaris UC 93. Format: cell-based. The conditions noted are these: Proteus vulgaris, UC93, 20 h. How it is done: as §2, §3
Another test relates to K. pneumoniae UC 58. Description: standard microplate test in BHI Agar (MIC), K. pneumoniae UC 58. The format is cell-based. Particulars: Klebsiella pneumoniae, UC58, 20 h. How it is done:
as §2, §3

For another test, the system named is S. schottmuelleri UC 126. Nature of the test: standard microplate test in BHI Agar (MIC), S. schottmuelleri UC 126. The format is cell-based. The conditions noted are these: 20 h, BHI agar, 37°, first table, read-out: Minimum Inhibitory Concentration. Here is the method:
as §2, §3

A further test has as its system Ps. aeruginosa UC 95. Description: standard microplate test in BHI Agar (MIC), Ps. aeruginosa UC 95. The format is cell-based. Particulars: Pseudomonas aeruginosa, UC95, 20 h, Ps. aeruginosa UC 95, read-out: Minimum Inhibitory Concentration. How it is done:
as §2, §3

The next test has as its system D. pneumoniae UC 41. Description: standard microplate test in BHI Agar (MIC), D. pneumoniae UC 41. The format is cell-based. Particulars: Streptococcus pneumoniae, UC41, 20 h. Here is the method: as §2, §3
In the next test the test system is P. mirabilis A-63. Description: standard microplate test in BHI Agar (MIC), P. mirabilis A-63. Format: cell-based. The conditions noted are these: Proteus mirabilis, A63, 20 h; P. mirabilis A-63; retest table, group (9), (11), (7α), neamine control; read-out: Minimum Inhibitory Concentration. Here is the method: as §2, §3
The next test relates to P. morgani UC 3186. Nature of the test: standard microplate test in BHI Agar (MIC), P. morgani UC 3186. Format: cell-based. The conditions noted are these: 20 h, retest table, group (9), (11), (7α), neamine control. How it is done:
as §2, §3

The next test has as its system P. rettgeri UC 339. Description: standard microplate test in BHI Agar (MIC), P. rettgeri UC 339. The format is cell-based. The conditions noted are these: Providencia rettgeri, UC339, 20 h; P. rettgeri UC 339; retest table, group (9), (11), (7α), neamine control; read-out: Minimum Inhibitory Concentration. How it is done:
as §2, §3

For a further test, the system named is S. marcescens UC 131. Description: standard microplate test in BHI Agar (MIC), S. marcescens UC 131. Format: cell-based. The conditions noted are these: Serratia marcescens, UC131, 20 h; S. marcescens UC 131; retest table, group (9), (11), (7α), neamine control; read-out: Minimum Inhibitory Concentration. How it is done:
as §2, §3

For the next test, the system named is S. flexneri UC 143. Description: standard microplate test in BHI Agar (MIC), S. flexneri UC 143. Format: cell-based. The conditions noted are these: Shigella flexneri, UC143, 20 h, retest table, group (9), (11), (7α), neamine control, read-out: Minimum Inhibitory Concentration. Here is the method:
as §2, §3

The test system of the next test is S. typhi TG-3. Description: standard microplate test in BHI Agar (MIC), S. typhi TG-3. The format is cell-based. Particulars: Salmonella enterica, 20 h, read-out: Minimum Inhibitory Concentration. How it is done:
as §2, §3

Where [1] appears, read: S. hemolyticus UC 152, retest table, group (9), (11), (7α), neamine control, read-out: Minimum Inhibitory Concentration.
The mark [2] stands for this setting: S. faecalis UC 694, retest table, group (9), (11), (7α), neamine control.
[3] abbreviates: K. pneumoniae UC 58, retest table, group (9), (11), (7α), neamine control, read-out: Minimum Inhibitory Concentration.
The mark [4] stands for this setting: retest table, group (9), (11), (7α), neamine control.

For `NC[C@H]1O[C@H](O[C@H]2[C@H](O)[C@@H](O[C@H]3O[C@H](CO)[C@@H](O)[C@H]3O)[C@H](N)C[C@@H]2N)[C@H](N)[C@@H](O)[C@@H]1O` [(7α), 6-O-(α-D-Ribofuranosyl)neamine], the zone of inhibition at 5000 µg/mL in the test with B. cereus (Bacillus cereus, B. cereus, 5 mg/ml) was determined as 25 mm; in the test with B. subtilis (Bacillus subtilis, B. subtilis, 5 mg/ml), 32 mm. The zone of inhibition at 10000 µg/mL worked out at 32 mm with B. cereus (Bacillus cereus, B. cereus) and 34 mm in the test with B. subtilis (Bacillus subtilis, B. subtilis, 10 mg/ml). In addition, the “active against Bacillus cereus” value with B. cereus is “active”. The “active against Bacillus subtilis” value in the test with B. subtilis (conclusion in words from the above results) is reported as “active”. The MIC came to 1000 µg/mL (≈ 2200 µM) in the test with S. aureus UC 76 (S. aureus 284 UC 76, BHI agar, 37°, 20 h, first table, read-out: Minimum Inhibitory Concentration); 62.5 µg/mL (≈ 138 µM) with S. aureus UC 76 (read-out: Minimum Inhibitory Concentration, S. aureus UC 76, retest table, group (9), (11), (7α), neamine control); 500 µg/mL (≈ 1100 µM) with S. aureus UC 570; 1000 µg/mL (≈ 2200 µM) with S. aureus UC 746; 31.2 µg/mL (≈ 68.7 µM) in the test with S. hemolyticus UC 152 (read-out: Minimum Inhibitory Concentration, S. hemolyticus UC 152, BHI agar, 37°, 20 h, first table); 7.8 µg/mL (≈ 17.2 µM) in the test on S. hemolyticus UC 152 (setting [1]). Besides, the MIC is 1000 µg/mL (≈ 2200 µM) in the test with St. faecalis UC 694 (setting [2]); over 1000 µg/mL in the test with St. faecalis UC 694 (St. faecalis UC 694, BHI agar, 37°, 20 h, first table); 500 µg/mL (≈ 1100 µM) with E. coli UC 45 (E. coli UC 45, BHI agar, 37°, 20 h, first table, read-out: Minimum Inhibitory Concentration); 62.5 µg/mL (≈ 138 µM) in the test with E. coli UC 45 (read-out: Minimum Inhibitory Concentration, E. coli UC 45, retest table, group (9), (11), (7α), neamine control); 1000 µg/mL (≈ 2200 µM) with P. vulgaris UC 93 (P. vulgaris UC 93, BHI agar, 37°, 20 h, first table, read-out: Minimum Inhibitory Concentration); 125 µg/mL (≈ 275 µM) in the test on P. vulgaris UC 93 (read-out: Minimum Inhibitory Concentration, P. vulgaris UC 93, retest table, group (9), (11), (7α), neamine control). The MIC with K. pneumoniae UC 58 (read-out: Minimum Inhibitory Concentration, K. pneumoniae UC 58, BHI agar, 37°, 20 h, first table) is 62.5 µg/mL (≈ 138 µM); with K. pneumoniae UC 58 (setting [3]), 7.8 µg/mL (≈ 17.2 µM); in the test with S. schottmuelleri UC 126 it was 500 µg/mL (≈ 1100 µM); in the test on Ps. aeruginosa UC 95 (BHI agar, 37°, 20 h, first table), over 1000 µg/mL; in the test on Ps. aeruginosa UC 95 (setting [4]), 1000 µg/mL (≈ 2200 µM); with D. pneumoniae UC 41 (D. pneumoniae UC 41, BHI agar, 37°, 20 h, first table, read-out: Minimum Inhibitory Concentration), over 1000 µg/mL. Further, the MIC is 125 µg/mL (≈ 275 µM) in the test on D. pneumoniae UC 41 (read-out: Minimum Inhibitory Concentration, D. pneumoniae UC 41, retest table, group (9), (11), (7α), neamine control); 500 µg/mL (≈ 1100 µM) in the test on P. mirabilis A-63; 125 µg/mL (≈ 275 µM) in the test with P. morgani UC 3186 (read-out: Minimum Inhibitory Concentration, P. morgani UC 3186); 1000 µg/mL (≈ 2200 µM) in the test on P. rettgeri UC 339; 250 µg/mL (≈ 550 µM) in the test with S. marcescens UC 131; 125 µg/mL (≈ 275 µM) with S. flexneri UC 143. In addition, the MIC with S. typhi TG-3 came to 62.5 µg/mL (≈ 138 µM).
In turn, `NC[C@H]1O[C@H](O[C@H]2[C@H](O)[C@@H](O)[C@H](N)C[C@@H]2N)[C@H](N)[C@@H](O[C@@H]2O[C@H](CO)[C@@H](O)[C@H](O)[C@H]2O)[C@@H]1O` [(11), 3'-O-(β-D-glucopyranosyl)neamine] gave a zone of inhibition at 10000 µg/mL with B. cereus (Bacillus cereus, B. cereus) of 16 mm. Further, in the test with B. cereus, the “active against Bacillus cereus” value was “active”. In addition, the MIC in the test with S. aureus UC 76 (S. aureus UC 76, retest table, group (9), (11), (7α), neamine control, read-out: Minimum Inhibitory Concentration) came out at 1000 µg/mL (≈ 2060 µM); in the test on S. hemolyticus UC 152 (setting [1]) it was 1000 µg/mL (≈ 2060 µM); in the test on St. faecalis UC 694 (setting [2]), 1000 µg/mL (≈ 2060 µM); with E. coli UC 45 (E. coli UC 45, retest table, group (9), (11), (7α), neamine control, read-out: Minimum Inhibitory Concentration), 1000 µg/mL (≈ 2060 µM); with P. vulgaris UC 93 (P. vulgaris UC 93, retest table, group (9), (11), (7α), neamine control, read-out: Minimum Inhibitory Concentration), 1000 µg/mL (≈ 2060 µM); in the test with K. pneumoniae UC 58 (setting [3]) it was 1000 µg/mL (≈ 2060 µM). The MIC was determined as 1000 µg/mL (≈ 2060 µM) with Ps. aeruginosa UC 95 (setting [4]); 1000 µg/mL (≈ 2060 µM) in the test with D. pneumoniae UC 41 (D. pneumoniae UC 41, retest table, group (9), (11), (7α), neamine control, read-out: Minimum Inhibitory Concentration); 1000 µg/mL (≈ 2060 µM) with P. mirabilis A-63; 1000 µg/mL (≈ 2060 µM) in the test on P. morgani UC 3186 (P. morgani UC 3186, read-out: Minimum Inhibitory Concentration); 1000 µg/mL (≈ 2060 µM) in the test with P. rettgeri UC 339; 1000 µg/mL (≈ 2060 µM) in the test on S. marcescens UC 131. The MIC in the test with S. flexneri UC 143 and in the test on S. typhi TG-3 was 1000 µg/mL (≈ 2060 µM) throughout.
